Results on 1 molecule are retold here after article PMC5218480 (PLoS ONE, 2017).

This experiment concerns MV-4-11 cells. Briefly: Gene expression microarray analysis (Affymetrix PrimeView) and GSEA. In kind it is cell-based, human. Details: RFU PODN (11730768_x_at) / Fold change /veh PODN (11730768_x_at) / RFU LINC00158 (11744669_a_at) / Fold change /veh LINC00158 (11744669_a_at) / RFU DUSP10 (11751237_a_at) / Fold change /veh DUSP10 (11751237_a_at) / RFU ID3 (11757404_x_at) / Fold change /veh ID3 (11757404_x_at) / RFU PLEKHG5 (11737974_s_at) / Fold change /veh PLEKHG5 (11737974_s_at) / RFU LRRC4B (11730491_at) / Fold change /veh LRRC4B (11730491_at) / RFU GIMAP4 (11747438_a_at) / Fold change /veh GIMAP4 (11747438_a_at) / RFU KRT8 (11758183_x_at) / Fold change /veh KRT8 (11758183_x_at) / RFU CNN1 (11734310_a_at) / Fold change /veh CNN1 (11734310_a_at) / RFU VPS37D (11726825_at) / Fold change /veh VPS37D (11726825_at) / RFU C10orf10 (11716522_x_at) / Fold change /veh C10orf10 (11716522_x_at) / RFU KIR2DL2 /// KIR2DL4 /// KIR2DL5A /// KIR2DL5B /// KIR2DS1 /// KIR2DS2 /// KIR2DS3 /// KIR2DS4 /// KIR3DL3 /// KIR3DL3 /// KIR3DS1 (11738374_at) / Fold change /veh KIR2DL2 /// KIR2DL4 /// KIR2DL5A /// KIR2DL5B /// KIR2DS1 /// KIR2DS2 /// KIR2DS3 /// KIR2DS4 /// KIR3DL3 /// KIR3DL3 /// KIR3DS1 (11738374_at) / RFU C1QL1 (11718748_at) / Fold change /veh C1QL1 (11718748_at) / RFU TMPRSS4 (11747572_a_at) / Fold change /veh TMPRSS4 (11747572_a_at) / RFU HAMP (11756126_x_at) / Fold change /veh HAMP (11756126_x_at) / RFU RNFT2 (11725882_a_at) / Fold change /veh RNFT2 (11725882_a_at) / RFU NR4A2 (11747474_a_at) / Fold change /veh NR4A2 (11747474_a_at) / RFU ABCC12 (11746883_a_at) / Fold change /veh ABCC12 (11746883_a_at) / RFU TMEM136 (11760407_x_at) / Fold change /veh TMEM136 (11760407_x_at) / RFU CLDN22 /// WWC2 (11732394_at) / Fold change /veh CLDN22 /// WWC2 (11732394_at) / RFU HLA-DPB1 (11760878_x_at) / Fold change /veh HLA-DPB1 (11760878_x_at) / RFU SPINT1 (11716480_a_at) / Fold change /veh SPINT1 (11716480_a_at) / RFU GAP43 (11754022_s_at) / Fold change /veh GAP43 (11754022_s_at) / RFU A4GNT (11735810_at) / Fold change /veh A4GNT (11735810_at) / RFU PRB3 (11715151_x_at) / Fold change /veh PRB3 (11715151_x_at) / RFU TUBB4B (11761932_at) / Fold change /veh TUBB4B (11761932_at) / RFU CAPN14 (11732068_a_at) / Fold change /veh CAPN14 (11732068_a_at) / RFU TMCC2 (11721928_a_at) / Fold change /veh TMCC2 (11721928_a_at) / RFU IRGQ (11745062_a_at) / Fold change /veh IRGQ (11745062_a_at) / RFU FAM174B (11720279_a_at) / Fold change /veh FAM174B (11720279_a_at) / RFU TMPRSS4 (11748680_a_at) / Fold change /veh TMPRSS4 (11748680_a_at) / RFU FAM212B (11763350_a_at) / Fold change /veh FAM212B (11763350_a_at) / RFU PLEKHG5 (11743358_a_at) / Fold change /veh PLEKHG5 (11743358_a_at) / RFU ZSCAN30 (11745921_a_at) / Fold change /veh ZSCAN30 (11745921_a_at) / RFU CMKLR1 (11741424_a_at) / Fold change /veh CMKLR1 (11741424_a_at) / RFU LOC101060620 /// MAPK8IP1 (11723275_at) / Fold change /veh LOC101060620 /// MAPK8IP1 (11723275_at) / RFU SPTSSB (11747773_x_at) / Fold change /veh SPTSSB (11747773_x_at) / RFU PRSS12 (11739890_at) / Fold change /veh PRSS12 (11739890_at) / RFU BIN1 (11741810_x_at) / Fold change /veh BIN1 (11741810_x_at) / RFU WNT11 (11732464_a_at) / Fold change /veh WNT11 (11732464_a_at) / RFU C10orf10 (11716521_a_at) / Fold change /veh C10orf10 (11716521_a_at) / RFU C5orf56 (11738089_at) / Fold change /veh C5orf56 (11738089_at) / RFU CYB561 (11721691_x_at) / Fold change /veh CYB561 (11721691_x_at) / RFU ANKRD19P (11752326_a_at) / Fold change /veh ANKRD19P (11752326_a_at) / RFU OR2T12 /// OR2T33 /// OR2T8 (11738714_s_at) / Fold change /veh OR2T12 /// OR2T33 /// OR2T8 (11738714_s_at) / RFU VCAN (11748164_a_at) / Fold change /veh VCAN (11748164_a_at) / RFU JSRP1 (11732532_at) / Fold change /veh JSRP1 (11732532_at) / RFU KRTAP10-11 (11738290_x_at) / Fold change /veh KRTAP10-11 (11738290_x_at) / RFU MYO3A (11730013_a_at) / Fold change /veh MYO3A (11730013_a_at) / RFU EBF3 (11725865_a_at) / Fold change /veh EBF3 (11725865_a_at) / RFU CAMK2N1 (11719241_x_at) / Fold change /veh CAMK2N1 (11719241_x_at) / RFU C5orf56 (11738088_a_at) / Fold change /veh C5orf56 (11738088_a_at) / RFU OLFML3 (11715873_a_at) / Fold change /veh OLFML3 (11715873_a_at) / RFU LOC100653217 /// NTM (11731650_a_at) / Fold change /veh LOC100653217 /// NTM (11731650_a_at) / RFU MAPK11 (11762145_a_at) / Fold change /veh MAPK11 (11762145_a_at) / RFU FIZ1 (11724087_x_at) / Fold change /veh FIZ1 (11724087_x_at) / RFU OASL (11726364_x_at) / Fold change /veh OASL (11726364_x_at) / RFU SOX15 (11748057_x_at) / Fold change /veh SOX15 (11748057_x_at) / RFU CD79A (11719716_a_at) / Fold change /veh CD79A (11719716_a_at) / RFU HIST1H1D (11736915_at) / Fold change /veh HIST1H1D (11736915_at) / RFU CASKIN2 (11723855_a_at) / Fold change /veh CASKIN2 (11723855_a_at) / RFU LOC730098 (11760151_x_at) / Fold change /veh LOC730098 (11760151_x_at) / RFU OR4N2 (11742367_at) / Fold change /veh OR4N2 (11742367_at) / RFU PRRT2 (11749266_a_at) / Fold change /veh PRRT2 (11749266_a_at) / RFU SNX32 (11753110_a_at) / Fold change /veh SNX32 (11753110_a_at) / RFU CDHR5 (11726645_a_at) / Fold change /veh CDHR5 (11726645_a_at) / RFU RCAN1 (11760418_a_at) / Fold change /veh RCAN1 (11760418_a_at) / RFU FAM167A (11723789_a_at) / Fold change /veh FAM167A (11723789_a_at) / RFU FAM26E (11764081_at) / Fold change /veh FAM26E (11764081_at) / RFU ISYNA1 (11749810_s_at) / Fold change /veh ISYNA1 (11749810_s_at) / RFU ACY1 (11761880_at) / Fold change /veh ACY1 (11761880_at) / RFU 11764098_at / Fold change /veh 11764098_at / RFU SAMD14 (11745864_x_at) / Fold change /veh SAMD14 (11745864_x_at) / RFU NPB (11741838_a_at) / Fold change /veh NPB (11741838_a_at) / RFU TMPRSS6 (11731388_a_at) / Fold change /veh TMPRSS6 (11731388_a_at) / RFU KRTAP10-2 (11738614_at) / Fold change /veh KRTAP10-2 (11738614_at) / RFU ARHGAP8 /// PRR5-ARHGAP8 (11727945_x_at) / Fold change /veh ARHGAP8 /// PRR5-ARHGAP8 (11727945_x_at) / RFU KRTAP5-7 /// NADSYN1 (11734609_at) / Fold change /veh KRTAP5-7 /// NADSYN1 (11734609_at) / RFU RASL12 (11751679_a_at) / Fold change /veh RASL12 (11751679_a_at) / RFU CDKN2B (11736163_a_at) / Fold change /veh CDKN2B (11736163_a_at) / RFU PRF1 (11729649_at) / Fold change /veh PRF1 (11729649_at) / RFU, ZNF638 /// ZNF638-IT1 / Fold change vs veh, ZNF638 /// ZNF638-IT1 / RFU, PANK3 / Fold change vs veh, PANK3 / RFU, SH3YL1 / Fold change vs veh, SH3YL1 / RFU, ZEB2 / Fold change vs veh, ZEB2 / RFU, NRIP1 / Fold change vs veh, NRIP1 / RFU, PTTG1IP / Fold change vs veh, PTTG1IP / RFU, CAPN2 / Fold change vs veh, CAPN2 / RFU, MED14 / Fold change vs veh, MED14 / RFU, SNORA58 / Fold change vs veh, SNORA58 / RFU, C1orf63 / Fold change vs veh, C1orf63 / RFU, LRRFIP1 / Fold change vs veh, LRRFIP1 / RFU, NDUFAF7 / Fold change vs veh, NDUFAF7 / RFU, SLC12A2 / Fold change vs veh, SLC12A2 / RFU, IBTK / Fold change vs veh, IBTK / RFU, ESF1 / Fold change vs veh, ESF1 / Fold change vs veh, TMEM50B / RFU, TAOK1 / Fold change vs veh, TAOK1 / RFU, ACBD3 / Fold change vs veh, ACBD3 / RFU, TMA16 / Fold change vs veh, TMA16 / RFU, RWDD3 / Fold change vs veh, RWDD3 / RFU, BCAT1 / Fold change vs veh, BCAT1 / RFU, EDEM3 / Fold change vs veh, EDEM3 / RFU, TMEM33 / Fold change vs veh, TMEM33 / RFU, WDR75 / Fold change vs veh, WDR75 / RFU, AHCTF1 / Fold change vs veh, AHCTF1 / RFU, TFRC / Fold change vs veh, TFRC / RFU, ZDHHC17 / Fold change vs veh, ZDHHC17 / RFU, NOM1 / Fold change vs veh, NOM1 / RFU, ARL8B / Fold change vs veh, ARL8B / RFU, ZBTB11 / Fold change vs veh, ZBTB11 / RFU, TAMM41 / Fold change vs veh, TAMM41 / RFU, KIAA1704 /// LOC100996395 / Fold change vs veh, KIAA1704 /// LOC100996395 / RFU, ING1 / Fold change vs veh, ING1 / RFU, TRMT61B / Fold change vs veh, TRMT61B / RFU, FUBP3 / Fold change vs veh, FUBP3 / RFU, TP53 / Fold change vs veh, TP53 / RFU, TNKS2 / Fold change vs veh, TNKS2 / RFU, ZFP14 / Fold change vs veh, ZFP14 / RFU, ACTR2 / Fold change vs veh, ACTR2 / RFU, PPP3R1 / Fold change vs veh, PPP3R1 / RFU, PIK3R1 / Fold change vs veh, PIK3R1 / RFU, HNRNPA1 / Fold change vs veh, HNRNPA1 / RFU, RNF170 / Fold change vs veh, RNF170 / RFU, ZNF28 / Fold change vs veh, ZNF28 / RFU, RNGTT / Fold change vs veh, RNGTT / RFU, OGT / Fold change vs veh, OGT / RFU, BRD1 / Fold change vs veh, BRD1 / RFU, MARS / Fold change vs veh, MARS / RFU, ZNF655 / Fold change vs veh, ZNF655 / RFU, FAHD1 / Fold change vs veh, FAHD1 / RFU, BDP1 / Fold change vs veh, BDP1 / RFU, LRRCC1 / Fold change vs veh, LRRCC1 / RFU, ARID1A / Fold change vs veh, ARID1A / RFU, ZNF146 / Fold change vs veh, ZNF146 / RFU, ZNF330 / Fold change vs veh, ZNF330 / RFU, GPN3 / Fold change vs veh, GPN3 / RFU, C9orf123 / Fold change vs veh, C9orf123 / RFU, N4BP2L2 / Fold change vs veh, N4BP2L2 / RFU, ARFIP1 / Fold change vs veh, ARFIP1 / RFU, FAM179B / Fold change vs veh, FAM179B / RFU, BCL10 / Fold change vs veh, BCL10 / RFU, UHRF1BP1L / Fold change vs veh, UHRF1BP1L / RFU, BET1 / Fold change vs veh, BET1 / RFU, CNOT2 / Fold change vs veh, CNOT2 / RFU, ZNF268 / Fold change vs veh, ZNF268 / Fold change vs veh, ZNF507 / RFU, DGCR2 / Fold change vs veh, DGCR2 / RFU, WDSUB1 / Fold change vs veh, WDSUB1 / Fold change vs veh, HSP90B1 /// MIR3652 / RFU, ADSS / Fold change vs veh, ADSS / RFU, GK / Fold change vs veh, GK / RFU, ZNF148 / Fold change vs veh, ZNF148 / RFU, TAF9 / Fold change vs veh, TAF9 / RFU, SLC1A5 / Fold change vs veh, SLC1A5 / RFU, SLMO2 / Fold change vs veh, SLMO2 / RFU, ABCC4 / Fold change vs veh, ABCC4 / RFU, LOC101060439 /// RAP1B / Fold change vs veh, LOC101060439 /// RAP1B / RFU, RFX7 / Fold change vs veh, RFX7 / RFU, GTPBP10 / Fold change vs veh, GTPBP10 / RFU, CNEP1R1 / Fold change vs veh, CNEP1R1 / RFU, BIVM-ERCC5 /// ERCC5 / Fold change vs veh, BIVM-ERCC5 /// ERCC5 / RFU, ILF3 / Fold change vs veh, ILF3 / RFU 11762660_at / Fold change /veh 11762660_at / RFU VCAN (11757783_s_at) / Fold change /veh VCAN (11757783_s_at) / RFU DDX43 (11728927_at) / Fold change /veh DDX43 (11728927_at) / RFU KRT8 (11758188_x_at) / Fold change /veh KRT8 (11758188_x_at) / RFU NKD1 (11759106_at) / Fold change /veh NKD1 (11759106_at) / RFU SRD5A1 (11742802_a_at) / Fold change /veh SRD5A1 (11742802_a_at) / RFU TPSAB1 /// TPSB2 (11721975_s_at) / Fold change /veh TPSAB1 /// TPSB2 (11721975_s_at) / RFU GSTM3 (11746129_a_at) / Fold change /veh GSTM3 (11746129_a_at) / RFU IL23R (11737362_x_at) / Fold change /veh IL23R (11737362_x_at) / RFU TMEM51 (11727254_a_at) / Fold change /veh TMEM51 (11727254_a_at) / RFU PIWIL2 (11732686_x_at) / Fold change /veh PIWIL2 (11732686_x_at) / RFU ORM1 (11744905_x_at) / Fold change /veh ORM1 (11744905_x_at) / RFU CCDC152 (11743942_at) / Fold change /veh CCDC152 (11743942_at) / RFU ECM1 (11717891_a_at) / Fold change /veh ECM1 (11717891_a_at) / RFU IL23R (11748794_a_at) / Fold change /veh IL23R (11748794_a_at) / RFU TNFAIP8L3 (11732012_x_at) / Fold change /veh TNFAIP8L3 (11732012_x_at) / RFU MBOAT4 (11741988_at) / Fold change /veh MBOAT4 (11741988_at) / RFU 11764193_at / Fold change /veh 11764193_at / RFU TMEM53 (11763286_at) / Fold change /veh TMEM53 (11763286_at) / RFU MAGEB2 (11727129_at) / Fold change /veh MAGEB2 (11727129_at) / RFU TMEM200A (11744735_a_at) / Fold change /veh TMEM200A (11744735_a_at) / RFU CCDC152 (11751479_a_at) / Fold change /veh CCDC152 (11751479_a_at) / RFU FAM211A (11726209_a_at) / Fold change /veh FAM211A (11726209_a_at) / RFU RGS16 (11746705_a_at) / Fold change /veh RGS16 (11746705_a_at) / RFU VCAN (11755009_s_at) / Fold change /veh VCAN (11755009_s_at) / RFU RHOB (11743442_s_at) / Fold change /veh RHOB (11743442_s_at) / RFU RGS16 (11720943_a_at) / Fold change /veh RGS16 (11720943_a_at) / RFU RGS16 (11720944_at) / Fold change /veh RGS16 (11720944_at) / RFU, VPS4B / Fold change vs veh, VPS4B / RFU, CREB1 / Fold change vs veh, CREB1 / RFU, DNAJC13 / Fold change vs veh, DNAJC13 / RFU, GNAQ / Fold change vs veh, GNAQ / RFU, CDK5R1 / Fold change vs veh, CDK5R1 / RFU, ZRANB3 / Fold change vs veh, ZRANB3 / RFU, CUL4A / Fold change vs veh, CUL4A / RFU, CCNY / Fold change vs veh, CCNY / RFU, UFL1 / Fold change vs veh, UFL1 / RFU, COG3 / Fold change vs veh, COG3 / RFU, DIAPH2 / Fold change vs veh, DIAPH2 / RFU, SKA2 / Fold change vs veh, SKA2 / RFU, AFF3 / Fold change vs veh, AFF3 / RFU, LMF1 / Fold change vs veh, LMF1 / RFU, IPO11 / Fold change vs veh, IPO11 / RFU, DFFB / Fold change vs veh, DFFB / RFU, FOXP1 / Fold change vs veh, FOXP1 / RFU, CARD8 / Fold change vs veh, CARD8 / RFU, STRN3 / Fold change vs veh, STRN3 / RFU, ADK / Fold change vs veh, ADK / RFU, RASSF2 / Fold change vs veh, RASSF2 / RFU, WIPF1 / Fold change vs veh, WIPF1 / RFU, LARP1B / Fold change vs veh, LARP1B / RFU, RASA1 / Fold change vs veh, RASA1 / RFU, RB1 / Fold change vs veh, RB1 / RFU, PPFIA1 / Fold change vs veh, PPFIA1 / RFU, MAT2A / Fold change vs veh, MAT2A / RFU, CCT5 / Fold change vs veh, CCT5 / RFU, WDR92 / Fold change vs veh, WDR92 / RFU, CUX1 / Fold change vs veh, CUX1 / RFU, TTC7A / Fold change vs veh, TTC7A / RFU, TMEM135 / Fold change vs veh, TMEM135 / RFU, DEPTOR / Fold change vs veh, DEPTOR / RFU, CPM / Fold change vs veh, CPM / RFU, DNAJB6 / Fold change vs veh, DNAJB6 / RFU, CACNA2D3 / Fold change vs veh, CACNA2D3 / RFU, DTX4 / Fold change vs veh, DTX4 / RFU, TFCP2 / Fold change vs veh, TFCP2 / RFU, GMCL1 /// GMCL1P1 / Fold change vs veh, GMCL1 /// GMCL1P1 / RFU, AEBP2 / Fold change vs veh, AEBP2 / RFU, SNHG1 /// SNORD22 /// SNORD25 /// SNORD26 /// SNORD27 /// SNORD28 /// SNORD29 /// SNORD31 / Fold change vs veh, SNHG1 /// SNORD22 /// SNORD25 /// SNORD26 /// SNORD27 /// SNORD28 /// SNORD29 /// SNORD31 / Fold change (Aza/veh), C12orf56 (ProbeSet 11735607_a_at) / Fold change (ACY-1035/veh), C12orf56 (ProbeSet 11735607_a_at) / Fold change (Aza/veh), FGFR1OP (ProbeSet 11751329_s_at) / Fold change (ACY-1035/veh), FGFR1OP (ProbeSet 11751329_s_at) / Fold change (Aza/veh), VPS36 (ProbeSet 11739960_a_at) / Fold change (ACY-1035/veh), VPS36 (ProbeSet 11739960_a_at) / RFU SYPL1 (11715823_x_at) / Fold change /veh SYPL1 (11715823_x_at) / RFU IGFBP7 (11715501_s_at) / Fold change /veh IGFBP7 (11715501_s_at) / RFU REEP3 (11722064_at) / Fold change /veh REEP3 (11722064_at) / RFU IGLL1 (11728026_x_at) / Fold change /veh IGLL1 (11728026_x_at): dose or concentration left out as unconfirmed. The conditions noted are these: MV-4-11 cells, 48 hours.

Take `Nc1ncn([C@@H]2O[C@H](CO)[C@@H](O)[C@H]2O)c(=O)n1` [azacitidine]: the “RFU TMEM200A (11744735_a_at)” value was found to be 6.62 RFU.
